Data reported in ChEMBL document CHEMBL2424529, “Nonpeptidic propargylamines as inhibitors of lysine specific demethylase 1 (LSD1) with cellular activity” (J Med Chem, 2013).
pIC50: −log10 of the molar value. Each block holds one compound with its values, some of them ahead of it.

Legend:
[1] = target: T1, Amine oxidase [flavin-containing] A (Homo sapiens, UniProt P21397); details: 1 h, read-out: INH
T1 sequence (P21397 whole entry): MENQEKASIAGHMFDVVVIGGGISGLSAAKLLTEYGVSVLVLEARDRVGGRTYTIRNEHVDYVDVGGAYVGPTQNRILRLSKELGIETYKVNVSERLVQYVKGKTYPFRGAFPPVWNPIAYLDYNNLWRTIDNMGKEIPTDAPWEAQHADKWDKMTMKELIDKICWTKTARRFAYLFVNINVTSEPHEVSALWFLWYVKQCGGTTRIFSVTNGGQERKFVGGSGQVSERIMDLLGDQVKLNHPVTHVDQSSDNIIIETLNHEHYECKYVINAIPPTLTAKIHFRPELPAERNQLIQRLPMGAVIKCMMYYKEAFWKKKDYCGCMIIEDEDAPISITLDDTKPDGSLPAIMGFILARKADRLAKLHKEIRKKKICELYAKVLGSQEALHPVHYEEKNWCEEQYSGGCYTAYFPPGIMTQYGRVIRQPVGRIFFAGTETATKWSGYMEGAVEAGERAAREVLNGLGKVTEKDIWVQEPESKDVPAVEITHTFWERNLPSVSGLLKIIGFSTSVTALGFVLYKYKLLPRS
Description: Inhibition of MAOA (unknown origin) using kynuramine as substrate at 100 uM after 1 hr by fluorescence assay relative to control

[2] = target: T2, Amine oxidase [flavin-containing] B (Homo sapiens, UniProt P27338); details: 1 h, read-out: INH
T2 sequence (P27338 whole entry): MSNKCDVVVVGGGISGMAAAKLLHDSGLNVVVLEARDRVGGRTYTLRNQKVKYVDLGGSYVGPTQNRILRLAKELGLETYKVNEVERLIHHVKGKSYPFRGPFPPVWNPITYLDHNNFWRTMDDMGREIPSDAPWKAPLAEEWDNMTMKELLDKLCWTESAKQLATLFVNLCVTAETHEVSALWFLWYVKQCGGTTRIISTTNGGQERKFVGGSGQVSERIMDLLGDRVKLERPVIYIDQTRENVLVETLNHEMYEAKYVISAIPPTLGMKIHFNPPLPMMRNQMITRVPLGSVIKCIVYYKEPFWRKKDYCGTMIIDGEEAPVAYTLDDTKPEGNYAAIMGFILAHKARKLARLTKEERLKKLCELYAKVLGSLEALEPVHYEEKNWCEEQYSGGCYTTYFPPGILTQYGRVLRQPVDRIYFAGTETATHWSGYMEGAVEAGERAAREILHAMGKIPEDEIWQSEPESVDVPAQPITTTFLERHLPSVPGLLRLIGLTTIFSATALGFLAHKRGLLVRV
Description: Inhibition of MAOB (unknown origin) using kynuramine as substrate at 100 uM after 1 hr by fluorescence assay relative to control

[3] = target: T1, Amine oxidase [flavin-containing] A; test: Inhibition of MAOA (unknown origin) using kynuramine as substrate after 1 hr by fluorescence assay
[4] = target: T2, Amine oxidase [flavin-containing] B; test: Inhibition of MAOB (unknown origin) using kynuramine as substrate after 1 hr by fluorescence assay
[5] = target: T3, Lysine-specific histone demethylase 1A (Homo sapiens, UniProt O60341); test: Inhibition of LSD1 (unknown origin) expressed in Sf9 cells using H3K4(me2) as substrate at 200 uM preincubated for 30 mins prior to substrate addition measured after 90 mins by horseradish peroxidase assay relative to control
[6] = target: T1, Amine oxidase [flavin-containing] A; details: 1 h, read-out: INH; remark: listed apart in the source
Description: Inhibition of MAOA (unknown origin) using kynuramine as substrate at 10 uM after 1 hr by fluorescence assay relative to control

[7] = target: T2, Amine oxidase [flavin-containing] B; details: 1 h, read-out: INH; remark: listed apart in the source
Description: Inhibition of MAOB (unknown origin) using kynuramine as substrate at 10 uM after 1 hr by fluorescence assay relative to control

[8] = target: T3, Lysine-specific histone demethylase 1A; test: biochemical; format: cell-based, Sf9
Description: Inhibition of LSD1 (unknown origin) expressed in Sf9 cells using H3K4(me2) as substrate preincubated for 30 mins prior to substrate addition measured after 90 mins by horseradish peroxidase assay

[9] = target: T2, Amine oxidase [flavin-containing] B; details: 1 h, read-out: INH; remark: listed apart in the source
Description: Inhibition of MAOB (unknown origin) using kynuramine as substrate at 500 uM after 1 hr by fluorescence assay relative to control

- inhibition at 100 µM [1]: 36%
SMILES: C#CCN(C)CCCC[C@H](NC(=O)OCc1ccccc1)C(=O)OCc1ccccc1

- inhibition at 100 µM [2]: 45%
SMILES: OC(CNC1CC1)COc1ccccc1-c1ccccc1 (stereo unspecified)

- pIC50 [3]: 6.26
- pIC50 [4]: 7.22
SMILES: C#CCNCC(O)COc1ccc(-c2ccccc2)cc1 (stereo unspecified)

- pIC50 [4]: 5.24
SMILES: C#CCNCCCOc1cccc(C(=O)NCc2ccccc2)c1

- inhibition [5]: 36.3%
- inhibition at 100 µM [2]: 27%
- inhibition at 10 µM [6]: 5%
SMILES: C#CCNCC(O)COc1ccccc1-c1ccccc1 (stereo unspecified)

- pIC50 [4]: 4.77
- inhibition at 100 µM [1]: 100%
SMILES: C#CCNCCCOc1cccc(C(=O)NC(C)C)c1

- inhibition at 10 µM [7]: 29%
SMILES: C#CCN(C)CC(O)COc1ccc2ccccc2c1 (stereo unspecified)

- pIC50 [4]: 7.00
- inhibition at 10 µM [6]: 73%
SMILES: C#CCN(C)CCCOc1cccc(NC(=O)c2ccccc2)c1

- inhibition at 10 µM [7]: 94%
SMILES: OC(CNC1CC1)COc1ccc2ccccc2c1 (stereo unspecified)

- inhibition at 10 µM [7]: 100%
- inhibition at 10 µM [6]: 100%
SMILES: OC(CNC1CC1)COc1ccc(-c2ccccc2)cc1 (stereo unspecified)

- inhibition at 10 µM [7]: 19%
- inhibition at 10 µM [6]: 65%
SMILES: C#CCNCC(O)COc1ccc2ccccc2c1 (stereo unspecified)

- pIC50 [8]: 3.95
- inhibition at 10 µM [7]: 100%
- inhibition at 10 µM [6]: 100%
SMILES: OC(CNC1CC1)COc1ccc2cc(Br)ccc2c1 (stereo unspecified)

- inhibition at 100 µM [2]: 32%
SMILES: C#CCN(C)CC(O)COc1cccc2ccccc12 (stereo unspecified)

- pIC50 [8]: 3.88
- inhibition at 100 µM [1]: 45%
- inhibition at 500 µM [9]: 51%
SMILES: CC#CCNCCCC[C@H](NC(=O)c1ccccc1)C(=O)OC(C)(C)C

- inhibition at 10 µM [7]: 100%
SMILES: C#CCN(C)CC(O)COc1ccc2cc(Br)ccc2c1 (stereo unspecified)

SMILES: C#CCNCCCOc1cccc(NC(=O)c2ccccc2)c1
- inhibition at 10 µM [6]: 62%

- inhibition at 100 µM [2]: 30%
SMILES: C#CCN(C)CC(O)COc1ccccc1-c1ccccc1 (stereo unspecified)

- inhibition at 500 µM [9]: 67%
SMILES: C#CCNCCCC[C@H](NC(=O)OCc1ccccc1)C(=O)OCc1ccccc1

- pIC50 [8]: 3.84
SMILES: C#CCNCCCC[C@H](NC(=O)c1ccccc1)C(=O)OC(C)(C)C

- inhibition at 10 µM [7]: 100%
SMILES: C#CCN(C)CC(O)COc1ccc(-c2ccccc2)cc1 (stereo unspecified)
